These results are taken from PubChem BioAssay AID330 (DTP/NCI, 2004).

Where “and” joins values, the source holds several entries; their conditions need not be identical. Equal values may be shown once. Inconclusive results and toxic doses are left out. Square brackets hold non-standard residues; d marks the D form. Peptide text beside a SMILES is read from it. ξ: configuration not given here. ξQ = NC(=O)CCC(N)C(=O)O

For the experiment, the system named is P388 leukemia ip, CD2F1 mice, survival T/C. Description: NCI In Vivo Anticancer Drug Screen. Data for tumor model P388 Leukemia (intraperitoneal) in CD2F1 (CDF1) mice. The note with it: endpoint: median survival time, higher = longer survival. The method in brief:
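Mice carrying the transplanted tumor received test compound or vehicle. Survival was recorded in each group, and the value is the treated-group measurement divided by that of the vehicle-treated control group.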

Where [1] appears, read: dose: 100.0 mg/kg/injection, schedule: Q01DX001 (ip), vehicle: saline with Tween-80.
Where [2] appears, read: dose: 200.0 mg/kg/injection, schedule: Q01DX001 (ip), vehicle: saline with Tween-80.
The mark [3] stands for this setting: dose: 50.0 mg/kg/injection, schedule: Q01DX005 (ip), vehicle: saline.
Setting [4] is: dose: 100.0 mg/kg/injection, schedule: Q01DX005 (ip), vehicle: saline.

`CCOC(=O)CC1NC(=O)CNC1=O` (stereo not given): the T/C was 100 % of control (dose: 60.0 mg/kg/injection, schedule: Q01DX005 (ip), vehicle: saline); 101 % of control (dose: 120.0 mg/kg/injection, schedule: Q01DX005 (ip), vehicle: saline); 100 % of control (dose: 240.0 mg/kg/injection, schedule: Q01DX005 (ip), vehicle: saline).
`C=C1C(=O)OC2/C=C(\CO)CC/C=C(/C=O)CC(O)C12` (stereo not given): the T/C is 101 % of control (dose: 1.89 mg/kg/injection, schedule: Q01DX005 (ip), vehicle: saline); 101 % of control (dose: 3.75 mg/kg/injection, schedule: Q01DX005 (ip), vehicle: saline); 99 % of control (dose: 7.5 mg/kg/injection, schedule: Q01DX005 (ip), vehicle: saline); 96 % of control (dose: 15.0 mg/kg/injection, schedule: Q01DX005 (ip), vehicle: saline).
With `S=c1cc(-c2ccccc2)c(-c2ccccc2)c(-c2ccccc2)s1`, the T/C is 91 % of control under setting [1] and 94 % of control under setting [2].
Take `C=CCC1(COS(N)(=O)=O)OC(n2cnc3c(N)ncnc32)C(O)C1O` (stereo not given): the T/C was 101 % of control (dose: 50.0 mg/kg/injection, schedule: Q01DX001 (ip), vehicle: saline); 101 % of control (dose: 100.0 mg/kg/injection, schedule: Q01DX001 (ip), vehicle: saline); 111 % of control (dose: 200.0 mg/kg/injection, schedule: Q01DX001 (ip), vehicle: saline); 99 % of control (dose: 400.0 mg/kg/injection, schedule: Q01DX001 (ip), vehicle: saline).
Consider `c1cc2nc(c1)CSCc1cc3c(cc1CSCc1cccc(n1)CSC3)CSC2`, for which the T/C is 102 % of control (dose: 50.0 mg/kg/injection, schedule: Q01DX009 (ip), vehicle: suspension in saline); 94 % of control (dose: 100.0 mg/kg/injection, schedule: Q01DX009 (ip), vehicle: suspension in saline); 86 % of control (dose: 200.0 mg/kg/injection, schedule: Q01DX009 (ip), vehicle: suspension in saline).
Turning to `CCOC(=O)C1(C)C(=O)C=C(c2ccccc2)CC1c1ccccc1` (stereo not given), the T/C is, setting by setting: (dose: 50.0 mg/kg/injection, schedule: Q01DX005 (ip), vehicle: saline with Tween-80) 95 % of control; (dose: 100.0 mg/kg/injection, schedule: Q01DX005 (ip), vehicle: saline with Tween-80) 100 % of control; (dose: 200.0 mg/kg/injection, schedule: Q01DX005 (ip), vehicle: saline with Tween-80) 95 % of control.
Take `CC(C)(C)c1cc(N)cc([N+](=O)[O-])c1`: the T/C was 109 % of control (dose: 100.0 mg/kg/injection, schedule: Q04DX002 (ip), vehicle: other) and 102 % of control (dose: 200.0 mg/kg/injection, schedule: Q04DX002 (ip), vehicle: other).
Turning to `Cc1ccc(S(=O)(=O)NN=c2cccccc2)cc1`, the T/C runs as follows: (dose: 100.0 mg/kg/injection, schedule: Q01DX001 (ip), vehicle: DMSO) 101 % of control; (dose: 200.0 mg/kg/injection, schedule: Q01DX001 (ip), vehicle: DMSO) 97 % of control.
Take `NC(=S)N/N=C/c1ncccc1O`: the T/C is, setting by setting: (dose: 25.0 mg/kg/injection, schedule: Q01DX009 (ip), vehicle: saline) 158 % of control; under setting [3], 155 % of control; (dose: 50.0 mg/kg/injection, schedule: Q01DX009 (ip), vehicle: saline) 151 % of control and 158 % of control; under setting [4], 162 % of control; (dose: 100.0 mg/kg/injection, schedule: Q01DX005 (ip), vehicle: suspension in saline) 167 % of control; (dose: 100.0 mg/kg/injection, schedule: Q01DX009 (ip), vehicle: saline) 180 % of control. Also, the T/C by setting is: (dose: 200.0 mg/kg/injection, schedule: Q01DX005 (ip), vehicle: saline) 157 % of control; (dose: 200.0 mg/kg/injection, schedule: Q01DX005 (ip), vehicle: suspension in saline) 90 % of control.
`NC(=O)CCC(N)C(=O)NCC(=O)O` (stereo not given) (H-[ξQ]-Gly-OH): the T/C by setting is: (dose: 12.5 mg/kg/injection, schedule: Q01DX005 (ip), vehicle: distilled water + Tween-80) 106 % of control; (dose: 25.0 mg/kg/injection, schedule: Q01DX005 (ip), vehicle: distilled water + Tween-80) 109 % of control; (dose: 50.0 mg/kg/injection, schedule: Q01DX005 (ip), vehicle: distilled water + Tween-80) 104 % of control; (dose: 100.0 mg/kg/injection, schedule: Q01DX005 (ip), vehicle: distilled water + Tween-80) 109 % of control; (dose: 200.0 mg/kg/injection, schedule: Q01DX005 (ip), vehicle: distilled water + Tween-80) 113 % of control.
For `CC(C)(C)NCC(O)CCl` (stereo not given), the T/C is, setting by setting: (dose: 25.0 mg/kg/injection, schedule: Q01DX009 (ip), vehicle: water) 113 % of control; (dose: 50.0 mg/kg/injection, schedule: Q01DX009 (ip), vehicle: water) 99 % of control; (dose: 100.0 mg/kg/injection, schedule: Q01DX009 (ip), vehicle: water) 99 % of control; (dose: 200.0 mg/kg/injection, schedule: Q01DX009 (ip), vehicle: water) 103 % of control.
With `Cc1cnc(C)n2c(C)nnc12`, the T/C reads like this: (dose: 100.0 mg/kg/injection, schedule: Q04DX003 (ip), vehicle: saline) 99 % of control; (dose: 200.0 mg/kg/injection, schedule: Q04DX003 (ip), vehicle: saline) 96 % of control.
For the compound `COC(=O)c1nc2nnc(NC(=O)Nc3ccc(Cl)cc3)n2c(-c2ccc(Cl)cc2)c1C`, the T/C by setting is: (dose: 60.0 mg/kg/injection, schedule: Q01DX005 (ip), vehicle: saline with Tween-80) 99 % of control; (dose: 120.0 mg/kg/injection, schedule: Q01DX005 (ip), vehicle: saline with Tween-80) 99 % of control; (dose: 240.0 mg/kg/injection, schedule: Q01DX005 (ip), vehicle: saline with Tween-80) 100 % of control.
Consider `Cc1ccnc2n[nH]nc12`, for which the T/C (dose: 100.0 mg/kg/injection, schedule: Q04DX002 (ip), vehicle: water) was 109 % of control; the T/C (dose: 200.0 mg/kg/injection, schedule: Q04DX002 (ip), vehicle: water) was 107 % of control; the T/C (dose: 400.0 mg/kg/injection, schedule: Q04DX002 (ip), vehicle: water) was 103 % of control.
Turning to `CC1=C(I)C2(CCCCC2)OC1=O`, the T/C runs as follows: under setting [1], 101 % of control; under setting [2], 94 % of control; (dose: 400.0 mg/kg/injection, schedule: Q01DX001 (ip), vehicle: saline with Tween-80) 93 % of control.
For the compound `Cc1cc(=O)c(C(=O)NC(=O)c2ccccn2)c(C)o1`, the T/C is, setting by setting: (dose: 50.0 mg/kg/injection, schedule: Q01DX005 (ip), vehicle: Klucel (hydroxypropylcellulose) (HPC)) 101 % of control; (dose: 100.0 mg/kg/injection, schedule: Q01DX005 (ip), vehicle: Klucel (hydroxypropylcellulose) (HPC)) 101 % of control; (dose: 200.0 mg/kg/injection, schedule: Q01DX005 (ip), vehicle: Klucel (hydroxypropylcellulose) (HPC)) 107 % of control.
Take `COc1ccc(CCN2C(=O)CC(CC3=NCCc4cc(OC)c(OC)cc43)CC2=O)cc1OC`: the T/C by setting is: under setting [3], 103 % of control; under setting [4], 95 % of control.
For `CC1(C)CC23C4COC(=O)C2CCC1C3CC4=O` (stereo not given), the T/C runs as follows: (dose: 1.5 mg/kg/injection, schedule: Q01DX009 (ip), vehicle: DMSO) 94 % of control; (dose: 3.0 mg/kg/injection, schedule: Q01DX009 (ip), vehicle: DMSO) 107 % of control and 94 % of control; (dose: 6.0 mg/kg/injection, schedule: Q01DX009 (ip), vehicle: DMSO) 104 % of control and 91 % of control; (dose: 12.0 mg/kg/injection, schedule: Q01DX009 (ip), vehicle: DMSO) 88 % of control and 95 % of control; (dose: 24.0 mg/kg/injection, schedule: Q01DX009 (ip), vehicle: DMSO) 90 % of control; (dose: 48.0 mg/kg/injection, schedule: Q01DX009 (ip), vehicle: DMSO) 106 % of control and 91 % of control.
`O=[N+]([O-])c1ccc([S][Pb]([c]2ccccc2)([c]2ccccc2)[c]2ccccc2)cc1`: the T/C (dose: 6.25 mg/kg/injection, schedule: Q01DX009 (ip), vehicle: Klucel (hydroxypropylcellulose) (HPC)) is 100 % of control; the T/C (dose: 12.5 mg/kg/injection, schedule: Q01DX009 (ip), vehicle: Klucel (hydroxypropylcellulose) (HPC)) was 102 % of control; the T/C (dose: 25.0 mg/kg/injection, schedule: Q01DX009 (ip), vehicle: Klucel (hydroxypropylcellulose) (HPC)) is 89 % of control.
